In patent US20260200919A1, “SUBSTITUTED AMINOPYRIDINE COMPOUNDS AND METHODS OF TREATING DISEASE USING SAME” (Atavistik Bio, Inc., priority 2023, published 2026) one finds IC50 data, which are given here for 19 compounds.

In experiment [1] the target is T1, human recombinant kinase full-length AKT1 E17K (Homo sapiens, UniProt P31749, E17K).
T1 construct: Purified human recombinant kinase full-length AKT1 E17K was expressed in insect cells; made in house; host or cells: insect cells
The experiment in a line: AKT1 E17K kinase assay (TR-FRET, Lance). The experiment is classed as biochemical. The conditions noted are these: 0.6 nM AKT1 E17K, 50 nM Ulight-CREBtide, either 50 μM ATP or 2 mM ATP (not specified which), 60 min at RT. In short, it runs like this: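 Full-length human AKT1 E17K (insect cell-expressed, PDPK1-activated; 0.6 nM) with 50 nM ULight-CREBtide in HEPES pH 7.5 with MgCl2 and DTT. ATP at 50 μM or 2 mM, 1% DMSO, 10-point dose response, 60 min at RT.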
On the technique in general: In TR-FRET formats the signal depends on donor and acceptor labels being close together.

The target in experiment [2] is T2, human recombinant kinase full-length wildtype AKT1 (Homo sapiens, UniProt P31749).
T2 construct: Purified human recombinant kinase full-length wildtype AKT1 was expressed in insect cells; made in house; host or cells: insect cells
T2 sequence (P31749 whole entry): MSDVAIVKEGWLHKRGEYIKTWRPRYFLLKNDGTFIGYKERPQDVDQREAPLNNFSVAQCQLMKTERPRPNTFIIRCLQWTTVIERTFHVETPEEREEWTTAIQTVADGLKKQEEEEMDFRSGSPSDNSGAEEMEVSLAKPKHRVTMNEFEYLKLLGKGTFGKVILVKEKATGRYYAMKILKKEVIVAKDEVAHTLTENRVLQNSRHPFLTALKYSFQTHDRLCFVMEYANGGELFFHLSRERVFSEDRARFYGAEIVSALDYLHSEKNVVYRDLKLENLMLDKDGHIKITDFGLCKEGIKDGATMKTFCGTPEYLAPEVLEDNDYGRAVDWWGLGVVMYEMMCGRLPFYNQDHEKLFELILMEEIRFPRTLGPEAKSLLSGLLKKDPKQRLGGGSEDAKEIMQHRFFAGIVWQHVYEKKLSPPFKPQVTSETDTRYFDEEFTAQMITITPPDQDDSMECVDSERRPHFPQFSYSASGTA
Description: AKT1 kinase assay (wildtype, TR-FRET, Lance). The experiment is classed as biochemical. The conditions noted are these: 0.6 nM wildtype AKT1, 50 nM Ulight-CREBtide, either 50 μM ATP or 2 mM ATP (not specified which), 60 min at RT. The procedure, abridged: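 Insect-cell-expressed AKT1, activated in vitro by PDPK1, was used at 0.6 nM with 50 nM Ulight-CREBtide and 50 μM or 2 mM ATP in 50 mM HEPES pH 7.5, 1% DMSO, over a 10-point dose response.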

T1 sequence (P31749 whole entry E17K): as the sequence (P31749 whole entry) above, with E17K counted along it

For orientation: IC50 means the point on the concentration scale where inhibition reaches its midpoint. Regarding `Nc1ncccc1-c1nc2ccc(-c3ccccc3)nc2n1-c1ccc(C2CN(C(=O)c3ccccc3C(=O)O)C2)cc1` [Compound 74, 2-(3-(4-(2-(2-aminopyridin-3-yl)-5-phenyl-3H-imidazo[4,5-b]pyridin-3-yl)phenyl)azetidine-1-carbonyl)benzoic acid], the IC50 in experiment [1] and in experiment [2] was greater than 0.5 µM throughout.

Take `Nc1ncccc1-c1nc2cc(-c3cccnc3)cnc2n1-c1ccc(CNC(=O)c2cccc(CC(=O)O)c2)cc1` [Compound 90, 2-(3-((4-(2-(2-aminopyridin-3-yl)-6-(pyridin-3-yl)-3H-imidazo[4,5-b]pyridin-3-yl)benzyl)carbamoyl)phenyl) acetic acid]: the concentration for half-maximal inhibition (IC50) in experiment [1] is greater than 0.5 µM; in experiment [2], less than 0.5 µM.

`CC(=O)Nc1cccc(-c2cnc3c(c2)nc(-c2cccnc2N)n3-c2ccc(CNC(=O)c3cccc(CC(=O)O)c3)cc2)c1` [Compound 83, 2-(3-((4-(6-(3-acetamidophenyl)-2-(2-aminopyridin-3-yl)-3H-imidazo[4,5-b]pyridin-3-yl)benzyl)carbamoyl)phenyl) acetic acid]: the figures for the IC50 in experiment [1] and in experiment [2] were 0.2 to 0.5 µM and less than 0.5 µM, respectively.

Turning to `COc1cc(CN2CC(c3ccc(-n4c(-c5cccnc5N)nc5ccc(-c6ccccc6)nc54)cc3)C2)ccc1C(=O)O` [Compound 184, 4-((3-(4-(2-(2-aminopyridin-3-yl)-5-phenyl-3H-imidazo[4,5-b]pyridin-3-yl)phenyl)azetidin-1-yl)methyl)-2-methoxybenzoic acid], the half-inhibitory concentration (IC50) was less than 0.05 µM in experiment [1] and less than 0.5 µM in experiment [2].

With `Nc1ncccc1-c1nc2ccc(-c3ccccc3)nc2n1-c1ccc(CNC(=O)c2cc(C(=O)O)ccc2F)cc1` [Compound 23, 3-((4-(2-(2-aminopyridin-3-yl)-5-phenyl-3H-imidazo[4,5-b]pyridin-3-yl)benzyl)carbamoyl)-4-fluorobenzoic acid], the IC50 in experiment [1] was less than 0.05 µM; in experiment [2], less than 0.5 µM.

`Cc1nc(NC(=O)c2ccc(C(=O)O)cc2F)ccc1-n1c(-c2cccnc2N)nc2ccc(-c3ccccc3)nc21` [Compound 148]: the concentration for half-maximal inhibition (IC50) is 0.05 to 0.2 µM in experiment [1] and less than 0.5 µM in experiment [2].

For the compound `Cc1cc(C(=O)Nc2ccc(-n3c(-c4cccnc4N)nc4ccc(-c5ccccc5)nc43)c(C)n2)c(C)cc1C(=O)O` [Compound 155], the IC50 was greater than 0.5 µM in experiment [1] and less than 0.5 µM in experiment [2].

In the case of `Nc1ncccc1-c1nc2ccc(C(F)(F)F)nc2n1-c1ccc(CNC(=O)c2ccc(C(=O)O)cc2)cc1` [Compound 99, 4-((4-(2-(2-aminopyridin-3-yl)-5-(trifluoromethyl)-3H-imidazo[4,5-b]pyridin-3-yl)benzyl)carbamoyl)benzoic acid], the IC50 in experiment [1] is greater than 0.5 µM; in experiment [2], less than 0.5 µM.

As for `Nc1ncccc1-c1nc2ccc(-c3ccccc3)nc2n1-c1ccc(NC(=O)c2ccc(C(=O)O)c(F)c2)nc1` [Compound 117], the IC50 is less than 0.05 µM in experiment [1] and less than 0.5 µM in experiment [2].

Consider `Nc1ncccc1-c1nc2cccnc2n1-c1ccc(CNC(=O)c2cccc(CC(=O)O)c2)cc1` [Compound 101, 2-(3-((4-(2-(2-aminopyridin-3-yl)-3H-imidazo[4,5-b]pyridin-3-yl)benzyl)carbamoyl)phenyl) acetic acid], for which the concentration for half-maximal inhibition (IC50) in experiment [1] and in experiment [2] was greater than 0.5 µM throughout.

For `Nc1ncccc1-c1nc2ccc(-c3ccc(F)cc3)nc2n1-c1ccc(NC(=O)c2ccc(C(=O)O)cc2)nc1` [Compound 109, 4-((5-(2-(2-aminopyridin-3-yl)-5-(4-fluorophenyl)-3H-imidazo[4,5-b]pyridin-3-yl)pyridin-2-yl)carbamoyl)benzoic acid], the IC50 in experiment [1] is 0.05 to 0.2 µM; in experiment [2], less than 0.5 µM.

In the case of `Nc1ncccc1-c1nc2ccc(-c3ccccc3)nc2n1-c1ccc(C2CN(Cc3cc(O)c(C(=O)O)c(F)c3)C2)cc1` [Compound 185, 4-((3-(4-(2-(2-aminopyridin-3-yl)-5-phenyl-3H-imidazo[4,5-b]pyridin-3-yl)phenyl)azetidin-1-yl)methyl)-2-fluoro-6-hydroxybenzoic acid], the concentration for half-maximal inhibition (IC50) in experiment [1] is less than 0.05 µM; in experiment [2], less than 0.5 µM.

On to `Cc1nc(NC(=O)c2cc(F)c(C(=O)O)cc2F)ccc1-n1c(-c2cccnc2N)nc2ccc(-c3ccccc3)nc21` [Compound 147], for which the figures for the IC50 in experiment [1] and in experiment [2] were 0.05 to 0.2 µM and less than 0.5 µM, respectively.

Regarding `COc1ccc2nc(-c3cccnc3N)n(-c3ccc(CNC(=O)c4ccc(C(=O)O)cc4C)cc3)c2c1` [Compound 102, 4-((4-(2-(2-aminopyridin-3-yl)-6-methoxy-1H-benzo[d]imidazol-1-yl)benzyl)carbamoyl)-3-methylbenzoic acid], the results for the IC50 in experiment [1] and in experiment [2] were greater than 0.5 µM and less than 0.5 µM, respectively.

`Cc1cc(C(=O)O)ccc1NC(=O)c1ccc(-n2c(-c3cccnc3N)nc3ccc(-c4ccccc4)nc32)cn1` [Compound 178, 4-(5-(2-(2-aminopyridin-3-yl)-5-phenyl-3H-imidazo[4,5-b]pyridin-3-yl)picolinamido)-3-methylbenzoic acid]: the results for the IC50 in experiment [1] and in experiment [2] were greater than 0.5 µM and less than 0.5 µM, respectively.

As to `COC(=O)CCc1ccc(C(=O)NCc2ccc(-n3c(-c4cccnc4N)nc4cc(-c5cccnc5)cnc43)cc2)cc1` [Compound 91, methyl 3-(4-((4-(2-(2-aminopyridin-3-yl)-6-(pyridin-3-yl)-3H-imidazo[4,5-b]pyridin-3-yl)benzyl)carbamoyl)phenyl) propanoate], the IC50 in experiment [1] is greater than 0.5 µM; in experiment [2], less than 0.5 µM.

`COC(=O)Cc1cccc(C(=O)NCc2ccc(-n3c(-c4cccnc4N)nc4cc(-c5cccnc5)cnc43)cc2)c1` [Compound 89, methyl 2-(3-((4-(2-(2-aminopyridin-3-yl)-6-(pyridin-3-yl)-3H-imidazo[4,5-b]pyridin-3-yl)benzyl)carbamoyl)phenyl)acetate]: the figures for the IC50 in experiment [1] and in experiment [2] were greater than 0.5 µM and less than 0.5 µM, respectively.

In the case of `C[C@@H](c1ccc(C(=O)O)cc1F)N1CC(c2ccc(-n3c(-c4cccnc4N)nc4ccc(-c5ccccc5)nc43)cc2)C1` [Compound 159], the half-inhibitory concentration (IC50) is 0.2 to 0.5 µM in experiment [1] and less than 0.5 µM in experiment [2].

`CC(C)c1ccc2nc(-c3cccnc3N)n(-c3ccc(NC(=O)c4ccc(C(=O)O)cc4)nc3)c2c1` [Compound 172, 4-((5-(2-(2-aminopyridin-3-yl)-6-isopropyl-1H-benzo[d]imidazol-1-yl)pyridin-2-yl)carbamoyl)benzoic acid]: the IC50 in experiment [1] is greater than 0.5 µM; in experiment [2], less than 0.5 µM.
